# Data published in US8563583B2, “Pyridone analogs useful as melanin concentrating hormone receptor-1 antagonists” (Bristol-Myers Squibb Company, priority 2009, dated 2013).
# Counter-ions that a name gives are not always drawn.
# Target: human melanin concentrating hormone receptor (MCHR1) (Homo sapiens (Human), UniProt Q99705, A5T/E4Q)
# Assay: Radioligand binding assay for assessment of MCHR1 activity
# Conditions: competition with [Phe13,[125I]Tyr19]-MCH; membranes of HEK-293 cells expressing mutated hMCHR1
# Method: Compounds of Formula I were initially characterized in an in vitro binding assay to determine their Ki or ability to antagonize binding of a peptide agonist to the human melanin concentrating hormone receptor (MCHR1). Representative compounds of the present invention had the following Ki values:
# Membranes from stably transfected HEK-293 cells expressing a mutated (E4Q, AST) hMCHRI receptor were prepared by dounce homogenization and differential centrifugation. Binding experiments were carried out with 0.5-1.0 ug of membrane protein incubated in a total of 0.2 ml in 25 mM HEPES (pH 7.4) with 10 mM MgCl2, 2 mM EGTA, and 0.1% BSA (Binding Buffer) for 90 min. For competition binding assays, reactions were carried out in the presence of with 0.06-0.1 nM [Phe^13, [^125I]Tyr^19]-MCH and increasing concentrations of unlabeled test molecules. Reactions were terminated by rapid vacuum filtration over 96 well-GFC Unifilter plates pre-coated with 0.075 ml binding buffer containing 1% BSA, and washed 3 times with 0.4 ml of Phospho-buffered Saline (pH 7.4) containing 0.01% TX-100. Filters were dried; 0.05 ml microscint 20 was added to each well and radioactivity was subsequently quantified by scintillation counting on a TOPCOUNT® microplate scintillation counter (Packard). Inhibitory constants were determined by nonlinear least squares analysis using a four parameter logistic equation.
# Sequence of human melanin concentrating hormone receptor (MCHR1) (Q99705 whole entry E4Q/A5T): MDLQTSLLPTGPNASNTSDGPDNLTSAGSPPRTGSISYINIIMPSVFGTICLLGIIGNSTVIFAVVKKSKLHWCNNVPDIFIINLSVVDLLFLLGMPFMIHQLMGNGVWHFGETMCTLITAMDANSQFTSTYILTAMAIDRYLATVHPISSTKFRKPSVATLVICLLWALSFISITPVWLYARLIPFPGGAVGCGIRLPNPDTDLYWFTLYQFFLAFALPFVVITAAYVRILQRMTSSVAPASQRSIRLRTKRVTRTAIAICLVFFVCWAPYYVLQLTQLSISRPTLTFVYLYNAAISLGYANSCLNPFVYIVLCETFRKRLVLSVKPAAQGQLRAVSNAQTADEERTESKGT
row,Ki,SMILES
1,2340 nM,COc1cc(-n2ccc(COc3ccccc3)cc2=O)ccc1OCC(C)(C)O [Example A-6]
2,29 nM,COc1cc(-n2ccc(CSc3ccc(Cl)cc3)cc2=O)ccc1OCC(C)(C)O [Example A-29]
3,500 nM,COc1cc(-n2ccc(CNc3ccc(Cl)cc3)cc2=O)ccc1OCC(C)(C)O [Example A-33]
4,7 nM,COc1cc(-n2ccc(-c3ccc(C(F)(F)F)cc3)cc2=O)ccc1OCC(C)(C)O [Example B-2]
5,3 nM,COc1cc(-n2ccc(-c3ccc(OC(F)(F)F)cc3)cc2=O)ccc1OCCO [Example C-1]
6,4 nM,"COc1cc(-n2ccc(SCc3ccc(Cl)cc3)cc2=O)ccc1OCC(C)(C)O [Example D-4, 4-(4-Chlorobenzylthio)-1-(4-(2-hydroxy-2-methylpropoxy)-3-methoxyphenyl)pyridin-2(1H)-one]"

# Tested on: SPRAGUE DAWLEY® rats
# Assay: Assessment of in vivo MCHR1 activity: weight change in rats given a choice of chow and high fat/high sucrose diet
# Set-up: species or system rat
# Conditions: 30 mg/kg p.o. daily for four days
# Method: Male SPRAGUE DAWLEY® (CD, Charles River Breeding Laboratory) rats weighing approximately 240 grams were placed in individual plastic cages with ALPHADRI® bedding. The room was maintained at 72° F. and 50% humidity, and a 12/12 light dark cycle with lights out at 1600 hours. The rats were conditioned for 5 days prior to the start of the study to having a choice of foods.
# Baseline body weight was measured prior to drug treatment on day 0 of the study. Baseline food consumption was the average of the 3 days prior to the first drug treatment. Drug was administered daily p.o. at 2.0 ml/kg at 1500 hours beginning on day 0 and continuing daily through day 4 as a suspension in 0.5% methyl cellulose, 0.1% Tween 80 in water at 3.0, 10 and 30 mg/kg p.o. All data were evaluated using ANOVA and Fishers PLSD statistics.
row,SMILES,% Weight change versus Control after daily Administration of drug at 30 mg/kg for four days
1,"COc1cc(-n2ccc(COc3ccc(Cl)cc3)cc2=O)ccc1OCC(C)(C)OC(=O)CN [Example P-1, 1-(4-(4-((4-Chlorophenoxy)methyl)-2-oxopyridin-1(2H)-yl)-2-methoxyphenoxy)-2-methylpropan-2-yl 2-aminoacetate hydrochloride]",3.4%
2,COc1cc(-n2ccc(OCc3ccc(Cl)cc3)cc2=O)ccc1OCC(C)(C)OC(=O)CN [Example P-3],6.1%
